Source: patent US20160058847A1, “IS100- A Highly Effective Enzyme Principle For Use In Dermal Therapeutics, And For Health And Beauty” (Issar Pharmaceuticals Pvt. Ltd., priority 2014, published 2016)
Entries after “also recorded” stand apart in the source; their conditions may differ.

Legend:
[1] = test system: IS 100; type: biochemical, wheat; details: pH 7, 37° C.; for inhibition of IS 100 activity (in words): Ac-DEVD-AFC hydrolysis, 20 mM HEPES, 0.05% CHAPS, 5% sucrose, FIG. 3
Experimental: As described above, the proteolytic activity of IS 100 can be blocked by using an inhibitor which blocks the active site of the protein enzyme present in the IS 100 principle. In FIG. 2 inhibitor Ac-DEVD-CHO inhibits the activity of IS 100. Several other chemicals or compounds can be tested for their efficacy in blocking the activity of IS 100. In such experiments, IS 100 is mixed with its synthetic substrate Ac-DEVD↓-AFC, and a constant volume of the inhibitor compound is added to check the extent to which the inhibitor blocks the activity of IS 100. In all experimental runs the concentrations of IS 100 and Ac-DEVD↓-AFC are maintained uniformly. The pH for all experiments is kept at 7 and the experiments are run at 37° C.

[2] = test system: IS 100; details: Ac-DEVD-AFC hydrolysis
Experimental: Rates of hydrolysis of a synthetic peptide Ac-DEVD↓-AFC (N-acetyl-Asp-Glu-Val-Asp-7-amino-4-trifluoromethylcoumarin) as a function of variables are plotted. Note that the rate, ΔF, is determined from the initial slope of the time-dependent fluorescence trace.
In the present test, 400 μL of IS 100 is combined with 2 μL of a 1 mM solution of Ac-DEVD↓-AFC, and the fluorescence is monitored as a function of time at 37° C.

[3] = test system: human recombinant PKR; assay: Proteolytic cleavage of PKR by IS 100, Western analysis; type: biochemical; details: inhibitor included in reaction mixture, FIG. 2 lane 1
Experimental: (§1) FIG. 2 illustrates proteolytic cleavage by formulation IS 100 shown by Western analysis of cleavage products of substrate proteins. IS 100 was incubated with the test protein in the presence and absence of the synthetic inhibitor Ac-DEVD-CHO, and the reaction product was immunoblotted using antibody for the test protein.
(§2) These two proteins were chosen simply because of their ready availability with the investigators. In fact, any protein will be a substrate for IS 100. In a typical protocol, IS 100 is incubated with the test substrate protein in the presence and absence of the synthetic inhibitor Ac-DEVD-CHO, and the reaction products are analyzed by electrophoresis, the amount of the uncut test protein is immunoblotted with human anti-PKR or anti-PERK antibodies. Note that immunoblotting of a test protein by using the corresponding antibody will show the status of that protein alone, and not other proteins present in IS 100.

[4] = test system: human recombinant PERK; assay: Proteolytic cleavage of PERK by IS 100, Western analysis; type: biochemical; details: inhibitor included in reaction mixture, FIG. 2 lane 1
Experimental: as §1, §2

Q: Which “inhibition of IS 100 activity (in words)” value [1] does the source give for `O=C(O)CI` [IAA, Iodoacetic acid] here?
A: completely inhibits the activity; also recorded: almost completely knocks out the activity

Q: `[Cl-].[Cl-].[Mg+2]` [MgCl2, magnesium chloride] was tested. Which “concentration at which the activity passes through a minimum” value ([2]; FIG. 1F) did it give?
A: ~0.1 mM

Q: How did the “effect of NaCl concentration on enzyme activity” value ([2]; FIG. 1D) turn out when `[Cl-].[Na+]` [NaCl, sodium chloride] was run?
A: highly sensitive

Q: Which “inhibition of IS 100 activity (in words)” value [1] does the source give for `O=S(=O)(F)Cc1ccccc1` [PMSF, phenylmethanesulfonyl fluoride] here?
A: only marginally; also recorded: sign of inhibition is also apparent

Q: And the “inhibition of IS 100 activity” value ([1]; at 1000 μM, FIG. 3C)?
A: ~10%

Q: With `[Cl-].[Cl-].[Zn+2]` [ZnCl2, zinc chloride] as the compound, how does the Kd ([2]; read-out: apparent binding constant, KZn app (inhibition), FIG. 1E) read?
A: 310 µM

Q: How did the “inhibition of IS 100 activity (in words)” value [1] turn out when `CC(=O)N[C@@H](CC(C)C)C(=O)N[C@@H](CC(C)C)C(=O)N[C@H](C=O)CCCNC(=N)N` [leupeptin] was run?
A: influences the activity to some extent

Q: What about the “inhibition of IS 100 activity, saturation level” value ([1]; at ~25 μM, FIG. 3B) of the same compound?
A: 30%

Q: Ac-DEVD-CHO was tested. Which “inhibition of IS 100 activity (in words)” value [1] did it give?
A: inhibits the activity of IS 100 significantly

Q: What about the “block of PKR cleavage by IS 100” value [3] of the same compound?
A: cleavage is blocked; also recorded: not cleaved

Q: And the “block of PERK cleavage by IS 100” value [4]?
A: cleavage is blocked; also recorded: not cleaved
